Results reported in article PMC5059578, “Construction of a Turn Off-On-Off Fluorescent System Based on Competitive Coordination of Cu^2+ between 6,7-Dihydroxycoumarin and Pyrophosphate Ion for Sensitive Assay of Pyrophosphatase Activity” (Journal of Analytical Methods in Chemistry, 2016).

Target: T1, Baker's yeast inorganic pyrophosphatase (PPase, EC 3.6.1.1) (Saccharomyces cerevisiae, UniProt P00817)
T1 construct: gene IPP1
Assay: Fluorescent Cu2+-DHC-PPi displacement assay of PPase activity after preincubation with NaF
Format: biochemical

T1 sequence (P00817 2-287): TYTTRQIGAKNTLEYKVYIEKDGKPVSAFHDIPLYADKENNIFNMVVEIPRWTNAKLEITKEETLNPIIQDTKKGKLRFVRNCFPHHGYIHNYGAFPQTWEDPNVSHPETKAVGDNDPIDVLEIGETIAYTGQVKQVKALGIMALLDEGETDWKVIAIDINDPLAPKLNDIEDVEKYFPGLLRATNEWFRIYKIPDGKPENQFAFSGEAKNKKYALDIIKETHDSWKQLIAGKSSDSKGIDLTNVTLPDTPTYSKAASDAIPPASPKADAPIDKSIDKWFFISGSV

[F-].[Na+] [NaF]
IC50: ~18.2 µM
